Data from ChEMBL document CHEMBL3044683, “Antifeedant activities of tutin and 7-hydroxycoumarin acylation derivatives against Mythimna separata” (2012).

Assays:
Mythimna separata [1] = assay: Antifeedant activity against third-instar larvae of Mythimna separata (Oriental armyworm) at 2 mg/ml applied on wheat leaf after 48 hr by non-choice leaf disk method relative to control; assay type: functional
Mythimna separata [2] = assay: Antifeedant activity against third-instar larvae of Mythimna separata (Oriental armyworm) at 2 mg/ml applied on wheat leaf after 24 hr by non-choice leaf disk method relative to control; assay type: functional

SMILES | AFI (Mythimna separata [1]) | AFI (Mythimna separata [2])
O=C(Oc1ccc2ccc(=O)oc2c1)c1ccc(Cl)cc1Cl [7-(2,4-DICHLOROBENZOYLOXY)COUMARIN] | 18.3% | 6.3%
O=C(Oc1ccc2ccc(=O)oc2c1)c1cc([N+](=O)[O-])cc([N+](=O)[O-])c1 [7-(3,5-DINITROBENZOYLOXY)COUMARIN] | 49.1% | 46.7%
O=C(Oc1ccc2ccc(=O)oc2c1)c1ccc(Cl)cc1 [7-(4-CHLOROBENZOYLOXY)COUMARIN] | 17.5% | 9.2%
COc1ccc(C(=O)Oc2ccc3ccc(=O)oc3c2)cc1 [7-(4-METHOXYBENZOYLOXY)COUMARIN] | 35.4% | 32.3%
O=C(Oc1ccc2ccc(=O)oc2c1)c1ccc([N+](=O)[O-])cc1 [7-(4-NITROBENZOYLOXY)COUMARIN] | 10.8% | -7.5%
O=C(Oc1ccc2ccc(=O)oc2c1)c1ccc(Cl)nc1 [7-(6-CHLORONICOTINOYLOXY)COUMARIN] | 37.9% | 45.3%
CS(=O)(=O)Oc1ccc2ccc(=O)oc2c1 [7-METHANESULFONYLOXYCOUMARIN] | 53.7% | 62.4%
C=C1CC[C@@H]2[C@](C)(CO)[C@H](O)CC[C@@]2(C)[C@@H]1C/C=C1/C(=O)OC[C@H]1O [ANDROGRAPHOLIDE] | 9.6% | 26.7%
C/C=C(\C)C(=O)O[C@H]1C[C@@H](OC(C)=O)[C@@]2(C(=O)OC)CO[C@H]3[C@@H](O)[C@@](C)([C@]45O[C@@]4(C)[C@@H]4C[C@H]5O[C@@H]5OC=C[C@@]54O)[C@H]4[C@]1(CO[C@]4(O)C(=O)OC)[C@@H]32 [AZADIRACHTIN A] | 43.8% | 37.3%
C=C(C)[C@H]1[C@H]2OC(=O)[C@@H]1[C@@]1(O)[C@H]3O[C@H]3[C@]3(CO3)[C@]1(C)[C@@H]2O [TUTIN] | 31.8% | 22.7%
O=c1ccc2ccc(O)cc2o1 [UMBELLIFERONE] | 17.3% | 25.4%
